Reference: article PMC5363571 (Oncotarget, 2016)
Where a name gives a salt, the structure may show the parent alone.

Target: USP7 (Homo sapiens, UniProt Q93009)
Assay: biochemical
Set-up: Ub-AMC hydrolysis by recombinant USP7 (20 nM), 30 min pre-incubation, fluorescence read-out
Conditions: read-out: % Inhibition at 50 μM

Sequence of USP7 (Q93009 whole entry): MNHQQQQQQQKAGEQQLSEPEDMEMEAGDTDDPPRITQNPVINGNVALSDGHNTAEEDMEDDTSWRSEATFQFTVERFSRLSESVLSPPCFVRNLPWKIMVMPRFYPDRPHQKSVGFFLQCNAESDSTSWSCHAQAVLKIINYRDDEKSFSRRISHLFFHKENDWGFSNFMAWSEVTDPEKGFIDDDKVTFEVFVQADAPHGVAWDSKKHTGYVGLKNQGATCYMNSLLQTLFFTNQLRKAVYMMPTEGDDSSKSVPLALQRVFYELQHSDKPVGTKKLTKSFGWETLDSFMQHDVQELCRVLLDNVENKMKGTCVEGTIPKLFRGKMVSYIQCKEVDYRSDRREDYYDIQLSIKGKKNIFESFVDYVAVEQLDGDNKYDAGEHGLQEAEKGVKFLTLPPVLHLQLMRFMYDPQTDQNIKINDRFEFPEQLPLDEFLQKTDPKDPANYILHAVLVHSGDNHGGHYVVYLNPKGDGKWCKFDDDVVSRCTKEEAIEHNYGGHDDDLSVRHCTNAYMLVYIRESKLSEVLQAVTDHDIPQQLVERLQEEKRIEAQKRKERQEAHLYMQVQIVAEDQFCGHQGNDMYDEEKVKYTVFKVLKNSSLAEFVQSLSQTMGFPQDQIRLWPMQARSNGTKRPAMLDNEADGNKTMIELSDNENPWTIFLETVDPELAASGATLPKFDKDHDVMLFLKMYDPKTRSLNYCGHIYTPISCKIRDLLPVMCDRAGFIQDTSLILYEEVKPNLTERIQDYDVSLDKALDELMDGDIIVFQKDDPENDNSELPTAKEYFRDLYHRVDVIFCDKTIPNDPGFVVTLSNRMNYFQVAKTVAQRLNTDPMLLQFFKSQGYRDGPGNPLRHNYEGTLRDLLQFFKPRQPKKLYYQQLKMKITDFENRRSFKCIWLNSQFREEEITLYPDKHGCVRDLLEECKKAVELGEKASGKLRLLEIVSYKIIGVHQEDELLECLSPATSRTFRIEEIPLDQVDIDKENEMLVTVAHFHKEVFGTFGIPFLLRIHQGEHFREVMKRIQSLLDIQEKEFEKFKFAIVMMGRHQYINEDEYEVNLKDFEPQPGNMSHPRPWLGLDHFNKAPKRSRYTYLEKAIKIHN

Row | SMILES | inhibition at 50 µM
1 | C[N+](C)(C)CCCCCCCCCC[N+](C)(C)C [Decamethonium 2Br] | < 5%
2 | NCCCC(O)(P(=O)(O)O)P(=O)(O)O [Alendronate] | < 5%
3 | CC(C)C(=O)c1c(C(C)C)nn2ccccc12 [Ibudilast] | < 5%
4 | COc1ccc(CN(CCN(C)C)c2ccccn2)cc1 [Mepyramine maleate] | < 5%
5 | Cn1ccnc1S [Methimazole] | < 5%
6 | C/N=C(/NC#N)NCCSCc1csc(NC(=N)N)n1 [Tiotidine] | 11.6%
7 | Clc1ccc(Nc2nnc(Cc3ccncc3)c3ccccc23)cc1 [Vatalanib] | < 5%
8 | CC1=C(C)C(=O)C(CCCCC#CCCCC#CCO)=C(C)C1=O [Docebenone] | < 5%
9 | CCC(=O)O[C@]1(C(=O)CCl)[C@@H](C)C[C@H]2[C@@H]3CCC4=CC(=O)C=C[C@]4(C)[C@@]3(F)[C@@H](O)C[C@@]21C [Clobetasol propionate] | 42.3%
10 | CC(=O)NC[C@H]1CN(c2ccc(N3CCOCC3)c(F)c2)C(=O)O1 [Linezolid] | < 5%
11 | C[N+](C)(C)[C@@H](Cc1c[nH]c(=S)[nH]1)C(=O)[O-] [Ergothioneine] | < 5%
12 | O=C(O)/C=C/c1ccc(Cn2ccnc2)cc1 [Ozagrel] | < 5%
13 | CC[C@@H](CO)NC(=O)[C@@H]1C=C2c3cccc4c3c(cn4C)C[C@H]2N(C)C1 [Methysergide] | < 5%
14 | CC1(C)C[C@@H]1C(=O)N/C(=C\CCCCSC[C@H](N)C(=O)O)C(=O)O [Cilastatin] | < 5%
15 | O=C(O)COC(=O)Cc1ccccc1Nc1c(Cl)cccc1Cl [Aceclofenac] | < 5%
16 | Fc1ccc(C(c2ccc(F)cc2)N2CCN(C/C=C/c3ccccc3)CC2)cc1 [Flunarizine-2HCl] | < 5%
17 | Nc1ccn([C@H]2CC[C@@H](CO)O2)c(=O)n1 [2',3' - dideoxycytidine] | < 5%
18 | O=P(O)(O)C(Cl)(Cl)P(=O)(O)O [Clodronate disodium] | < 5%
19 | CC[C@]1(O)C[C@H]2CN(CCc3c([nH]c4ccccc34)[C@@](C(=O)OC)(c3cc4c(cc3OC)N(C=O)[C@H]3[C@@](O)(C(=O)OC)[C@H](OC(C)=O)[C@]5(CC)C=CCN6CC[C@]43[C@@H]65)C2)C1 [Vincristine sulfate] | < 5%
20 | CO[C@@H]1[C@@H](OC(N)=O)[C@@H](O)[C@H](Oc2ccc3c(O)c(NC(=O)c4ccc(O)c(CC=C(C)C)c4)c(=O)oc3c2C)OC1(C)C [Novobiocin Na] | < 5%
21 | COC(=O)C1=C(C)NC(C)=C(C(=O)OCCN(C)Cc2ccccc2)C1c1cccc([N+](=O)[O-])c1 (stereo not drawn) [Nicardipine] | < 5%
22 | CC(C)NCC(O)c1ccc(NS(C)(=O)=O)cc1 (stereo not drawn) [Sotalol HCl] | < 5%
23 | Nc1cc(-c2ccncc2)c[nH]c1=O [Amrinone] | < 5%
24 | CCOC(=O)C1=C(C)NC(C)=C(C(=O)OC)C1c1cccc(Cl)c1Cl (stereo not drawn) [Felodipine] | 7.9%
25 | C=C1C[C@@H]2[C@H](CC[C@]3(C)C(=O)CC[C@@H]23)[C@@]2(C)C=CC(=O)C=C12 [Exemestane] | < 5%
26 | CC1(C)CCC2(C(=O)O)C(O)CC3(C)C(=CCC4C5(C)CC(O)C(O)C(C)(CO)C5CCC43C)C2C1 (stereo not drawn) [Polygalacic acid] | < 5%

Row | SMILES | inhibition at 50 µM
27 | NC1CCN(c2c(F)cc3c(=O)c(C(=O)O)cn(C4CC4)c3c2Cl)C1 (stereo not drawn) [Clinafloxacin HCl] | < 5%
28 | CCC(C)(C)C(=O)O[C@H]1C[C@@H](C)C=C2C=C[C@H](C)[C@H](CC[C@@H]3C[C@@H](O)CC(=O)O3)[C@H]21 [Simvastatin] | < 5%
29 | CC1(C)[C@H](C(=O)O)N2C(=O)C[C@H]2S1(=O)=O [Sulbactam] | < 5%
30 | CCCCn1c(=O)c2c(ncn2CC(C)=O)n(CCCC)c1=O [Denbufylline] | < 5%
31 | CCC[S+]([O-])c1ccc2[nH]c(NC(=O)OC)nc2c1 (stereo not drawn) [Ricobendazole] | < 5%
32 | COc1cc2c(cc1OC)-c1c/c(=N\c3c(C)cc(C)cc3C)n(C)c(=O)n1CC2 [Trequinsin HCl] | < 5%
33 | CN(C)CC/C=C1/c2ccccc2COc2ccc(CC(=O)O)cc21 [Olopatadine] | < 5%
34 | CC1(C)CC[C@]2(C(=O)O)CC[C@]3(C)C(=CC[C@@H]4[C@@]5(C)CC[C@H](O)[C@@](C)(CO)[C@@H]5CC[C@]43C)[C@@H]2C1 [Hederagenin] | 36.5%
35 | Cc1oncc1C(=O)Nc1ccc(C(F)(F)F)cc1 [Leflunomide] | < 5%
36 | CC12CC3CC(C)(C1)CC(N)(C3)C2 [Memantine HCl] | < 5%
37 | CC/C(=C(/CC)c1ccc(O)cc1)c1ccc(O)cc1 [Diethylstilbestrol] | 30.6%
38 | CN(C)CCCN1c2ccccc2Sc2ccc(Cl)cc21 [Chlorpromazine HCl] | < 5%
39 | Cc1nc2n(c(=O)c1CCN1CCC(c3noc4cc(F)ccc34)CC1)CCCC2 [Risperidone] | < 5%
40 | O=C(O)c1ccccc1Nc1cccc(C(F)(F)F)c1 [Flufenamic acid] | < 5%
41 | CCCCC(C)(O)C/C=C/[C@H]1[C@H](O)CC(=O)[C@@H]1CCCCCCC(=O)OC (mixture of isomers) [Misoprostol] | < 5%
42 | CN(C)CCCN1c2ccccc2CCc2ccccc21 [Imipramine HCl] | 26.5%
43 | C=C1C[C@H]2[C@@H]3C=C(C)C4=CC(=O)CC[C@]4(C)[C@H]3CC[C@]2(C)[C@@]1(OC(C)=O)C(C)=O [Melengestrol acetate] | < 5%
44 | COc1ccc(C2CNC(=O)C2)cc1OC1CCCC1 (stereo not drawn) [Rolipram] | < 5%
45 | CCN(CC)CCNC(=O)c1cc(Cl)c(N)cc1OC [Metoclopramide HCl] | < 5%
46 | Cc1ncc([N+](=O)[O-])n1CCO [Metronidazole] | < 5%
47 | CC(COc1ccccc1)N(CCCl)Cc1ccccc1 (stereo not drawn) [Phenoxybenzamine HCl] | < 5%
48 | CN(C)/N=N/c1[nH]cnc1C(N)=O [Dacarbazine] | < 5%
49 | O=C(CCCN1CCC2(CC1)C(=O)NCN2c1ccccc1)c1ccc(F)cc1 [Spiperone] | < 5%
50 | CC=CC(=O)N(CC)c1ccccc1C [Crotamiton] | < 5%
51 | CC(=O)[C@]1(O)Cc2c(O)c3c(c(O)c2[C@@H](O[C@H]2C[C@H](N)[C@H](O)[C@H](C)O2)C1)C(=O)c1ccccc1C3=O [Idarubicin] | < 5%
52 | COC(=O)C1=C(C)NC(C)=C(C(=O)OCCN2CCN(C(c3ccccc3)c3ccccc3)CC2)C1c1cccc([N+](=O)[O-])c1 (stereo not drawn) [Manidipine] | < 5%

Row | SMILES | inhibition at 50 µM
53 | CN1C(C(=O)Nc2ccccn2)=C(O)c2ccccc2S1(=O)=O [Piroxicam] | < 5%
54 | Cc1ncc([N+](=O)[O-])n1CC(C)O (stereo not drawn) [Secnidazole] | < 5%
55 | c1ccc2c(c1)OCC(C1=NCCN1)O2 (stereo not drawn) [Idazoxan] | < 5%
56 | CN[C@@H]1[C@H](O)[C@H](NC)[C@H]2O[C@@]3(O)C(=O)C[C@@H](C)O[C@H]3O[C@@H]2[C@H]1O [Spectinomycin] | < 5%
57 | COc1ccc(C[C@H](N)C(=O)N[C@H]2[C@@H](O)[C@H](n3cnc4c(N(C)C)ncnc43)O[C@@H]2CO)cc1 [Puromycin 2HCl] | < 5%
58 | O=c1[nH]cnc2c1ncn2[C@H]1CC[C@@H](CO)O1 [Didanosine] | < 5%
59 | N[C@@H](Cc1ccc(N(CCCl)CCCl)cc1)C(=O)O [Melphalan] | < 5%
60 | CN1[C@@H]2CCC[C@H]1C[C@@H](NC(=O)c1nn(C)c3ccccc13)C2 [Granisetron] | < 5%
61 | C[C@@H]1O[C@@H](O[C@H]2C[C@@H](O)[C@]3(CO)[C@H]4[C@H](O)C[C@]5(C)[C@@H](C6=CC(=O)OC6)CC[C@]5(O)[C@@H]4CC[C@]3(O)C2)[C@H](O)[C@H](O)[C@H]1O [Ouabain] | < 5%
62 | Cn1c(=O)c2c(ncn2CC2OCCO2)n(C)c1=O [Doxofylline] | < 5%
63 | C#Cc1cccc(Nc2ncnc3cc(OCCOC)c(OCCOC)cc23)c1 [Erlotinib] | < 5%
64 | C[C@H]1[C@H](OC(=O)CCC(=O)O)O[C@@H]2O[C@@]3(C)CC[C@H]4[C@H](C)CC[C@@H]1[C@@]24OO3 [Artesunate] | < 5%
65 | CC(C)(O)c1ccccc1CC[C@@H](SCC1(CC(=O)O)CC1)c1cccc(/C=C/c2ccc3ccc(Cl)cc3n2)c1 [Montelukast] | 76.3%
66 | CC(C)CC(N(C)C)C1(c2ccc(Cl)cc2)CCC1 (stereo not drawn) [Sibutramine HCl] | < 5%
67 | CC(C)n1c(/C=C/[C@H](O)C[C@H](O)CC(=O)O)c(-c2ccc(F)cc2)c2ccccc21 [Fluvastatin Na] | < 5%
68 | C[N+](C)(C)CCOC(=O)CCC(=O)OCC[N+](C)(C)C [Succinylcholine] | < 5%
69 | O=c1[nH]c2ccccc2n1CCCN1CCC(n2c(=O)[nH]c3cc(Cl)ccc32)CC1 [Domperidone] | < 5%
70 | NCCCC[C@H](N[C@@H](CCc1ccccc1)C(=O)O)C(=O)N1CCC[C@H]1C(=O)O [Lisinopril] | 30.5%
71 | CC#C[C@]1(O)CC[C@H]2[C@@H]3CCC4=CC(=O)CCC4=C3[C@@H](c3ccc(N(C)C)cc3)C[C@@]21C [Mifepristone] | < 5%
72 | COc1c(N2C[C@@H]3CCCN[C@@H]3C2)c(F)cc2c(=O)c(C(=O)O)cn(C3CC3)c12 [Moxifloxacin HCl] | < 5%
73 | O=C(C1CCCCC1)N1CC(=O)N2CCc3ccccc3C2C1 (stereo not drawn) [Praziquantel] | < 5%
74 | CCCc1nc(C(C)(C)O)c(C(=O)O)n1Cc1ccc(-c2ccccc2-c2nnn[nH]2)cc1 [Olmesartan] | < 5%
75 | COC(=O)[C@]1(C)CC[C@]2(C)CC[C@]3(C)C4=CC=C5C(=CC(=O)C(O)=C5C)[C@]4(C)CC[C@@]3(C)[C@@H]2C1 [Pristimerin] | 39.1%
76 | CC(=O)Oc1ccccc1C(=O)O [Acetylsalicylic acid] | < 5%
77 | CC(C)NCC(O)c1ccc(O)c(O)c1 (racemic) [Isoproterenol HCl (rac)] | < 5%
78 | CC(C)[N+]1(C)C2CCC1CC(OC(=O)C(CO)c1ccccc1)C2 (stereo not drawn) [Ipratropium Br] | < 5%
